Data from patent publication US20080317700A1 (priority 2006, published 2008).

What was measured:
Solubility (qualitative) = assay type: physicochemical
[1] = tested on: cyanobacteria Synechococcus 7002; test: Liquid culture growth inhibition (optical density), salt water cyanobacteria; assay type: cell-based; conditions: Synechococcus 7002, residual salt control; untreated control 0.72
Procedure: Strains of green algae, cyanobacteria and E. Coli were used as test organisms. The green algae CD 1 Red and cyanobacteria Synechocystos 6803 were obtained from the collection of Prof. George Bullerjahn. Salt water strain of cyanobacteria Synechococcus 7002 was obtained from the collection of Prof. Michael McKay. E Coli DH 5α was obtained from Invitrogen Inc.
Green algae and cyanobacteria were propagated photoautotrophically in 250 mL Erlenmeyer flasks containing 100 mL of liquid BG-11 culture medium (see Supporting Information). The cultures were kept on a rotating shaker (100 rpm) at 25° C. for 4 days and continuously illuminated with cool-white fluorescent light with a constant light intensity of 5000 lux. The grown culture medium was sterilized in an autoclave at 121° C. and 1.05 kg cm^−2 pressure for 20 min. For the cell experiments, 20 mL aliquots of the BG-11 medium containing the green algal ([cells]initial=5.9×10^7 mL^−1) or cyanobacteria cells ([cells]initial=1.7×10^9 mL^−1) were placed in sterile 50 mL Erlenmeyer flasks. CD 1 Red, Synechocystos 6803 and Synechococcus 7002 were then treated with an aliquot of a stock herbicide solution to bring the final herbicide concentration to 1 mM and incubated for 7 days on a rotator shaker (100 rpm) at 25° C. and continuous light intensity of 5000 lux. Cell counts were correlated with the absorbance and measured as a function of time using a Spectronic 20 Genesis spectrophotometer. As previously reported by Ma et al., 5 the optimal wavelength for monitoring culture growth is 680 nm. Experiments for each herbicide were repeated three times. Control and treated cultures were grown under the same conditions of temperature, photoperiod, and agitation. In each experiment, the inhibition of cell growth in treated cultures was monitored spectrophotometrically and compared to the growth in control samples.

green algae CD 1 Red = test: organism not typed; assay type: cell-based; conditions: 120 h; CD1 Red, herbicide concentration 300 mM, 5 days; read-out: Average radii of the inhibition zones
Procedure: After phototrophical propagation during the 5 days under cool fluorescence light (intensity 5000 lux), the average radii of inhibition zones were measured. Water soaked filter paper circles were used as controls. Experiments for each herbicide concentration were repeated 3 times.

## C=C(C)C(=O)N(CC(=O)O)CP(=O)(O)O [MA, N-Methacryloyl-N-(phosphonomethyl)glycine]
Solubility (qualitative)
  Solubility in organic solvents: poorly soluble in most organic solvents
  Solubility in water: soluble in water

## [Cl-].[Na+] [NaCl, sodium chloride]
[1]
  Optical Density at 680 nm after 7 days of media growth, NaCl control experiment: (0.75 NaCl)

## C=CC(N)=O [acrylamide]
Green algae CD 1 Red
  zone of inhibition at 300000 µM: 7.5 mm
